According to patent US8846951B2 (AbbVie Inc., priority 2009, dated 2014):

Assays:
[1] = target: T1, 5-HT6 receptor (Homo sapiens, UniProt P50406); test: Human 5-HT6 receptor radioligand binding assay (transfected CHO cells, [3H]LSD); settings: transfected CHO cell membranes, 2 nM [3H]LSD
T1 construct: expressed in transfected cells; host or cells: CHO cells (membrane homogenates)
Procedure: (vi) Human 5-HT6 Receptor Radioligand Binding Assay
Affinity of compounds for the agonist site of the 5-HT6 receptor in transfected CHO cells was determined in a radioligand binding assay essentially as described by Monsma, F. J., et al., Mol. Pharmacol. (1993) 43, 320-327. […] Nonspecific binding was determined in the presence of 100 μM serotonin. The amount of binding was determined by radioactivity quantitation with scintillation counter. IC50s were determined from a standard curve of the reference compound serotonin. Ki's as shown in Table 7 were derived from the IC50s in the standard method.

[2] = target: T2, 5HT2C receptors (Homo sapiens, UniProt P28335); test: Human 5-HT2C functional assay in 1321N1 cells (intracellular calcium, FLIPR); format: cell-based; parameters: expressed in transfected cells; host or cells: 1321N1 cells; settings: 5-HT2c agonist activity, maximum calcium response
T2 sequence (P28335 33-458): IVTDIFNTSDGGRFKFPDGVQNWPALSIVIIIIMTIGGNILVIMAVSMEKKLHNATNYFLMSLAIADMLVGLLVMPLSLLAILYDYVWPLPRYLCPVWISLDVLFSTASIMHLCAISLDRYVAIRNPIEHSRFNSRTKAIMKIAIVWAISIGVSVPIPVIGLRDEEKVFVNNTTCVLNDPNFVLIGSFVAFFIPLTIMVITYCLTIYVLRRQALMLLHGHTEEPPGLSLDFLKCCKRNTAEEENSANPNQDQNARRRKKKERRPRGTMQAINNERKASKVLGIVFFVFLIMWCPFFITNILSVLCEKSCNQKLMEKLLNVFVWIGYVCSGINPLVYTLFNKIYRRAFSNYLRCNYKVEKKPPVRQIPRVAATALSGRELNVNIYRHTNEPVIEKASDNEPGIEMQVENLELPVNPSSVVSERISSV
Outline: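 Intracellular calcium (Fluo-4, FLIPR peak response) was measured in stably transfected human 5-HT2C 1321N1 cells after overnight serum-free culture. Compounds were applied at final 10^−10 to 10^−5 M either alone or together with 10^−9 M serotonin. Half-maximal effect concentration was derived by four-parameter logistic fitting.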

[3] = target: T3, human serotonin 5-HT2c receptor (Homo sapiens, UniProt P28335); test: Human 5-HT2C receptor radioligand binding assay (agonist site, [125I]DOI); settings: 5-HT2c agonist site; transfected CHO cell membranes; 0.2 nM [125I](±)DOI
T3 construct: expressed in transfected cells; host or cells: CHO cells (membrane homogenates)
T3 sequence (P28335 33-458): T2 sequence (P28335 33-458)
Procedure: (i) Human 5-HT2C Receptor Radioligand Binding Assay
Affinity of compounds for the agonist site of the […], receptor in transfected CHO cells was determined in a radioligand binding assay essentially as described by Bryant, H. U., et al., Life Sciences (1996) 59(15), 1259-1268.

[4] = target: T2, 5HT2C receptors; test: Human 5-HT2C functional assay in CHO-K1 cells (96-well, calcium, FLIPR); format: cell-based; parameters: expressed in transfected cells; settings: 5-HT2c agonist activity, CHO-K1 cells stably transfected
Procedure: (iv) Human 5-HT2C Functional Assay in CHO-K1 Cells
Functional activity was determined by testing the effect of the compounds on intracellular calcium levels in CHO-K1 cells stably transfected with the human 5-HT2C receptor. Cells were seeded into 96-well plates at 60,000 cells/well and grown overnight in tissue culture medium (UltraCHO™ (Lonza), containing 1% dFCS, 250 μg/mL Zeocin, 400 μg/mL Geneticin) at 37° C. and 5% CO2. Growth medium was replaced by medium without dFCS for overnight incubation. Cells were loaded with a fluorescent calcium-sensitive dye in the presence of probenicid according to the manufacturer's protocol (FLIPR Ca4 Assay kit, Molecular Devices). Serial compound dilutions (final concentrations 10^−10 to 10^−5 M) were added to the cells and the maximum calcium response was determined using a FLIPR instrument (Molecular Devices). Concentration-response curves were fitted using a four-parameter logistic equation (GraphPad Prism). The concentration at which the compound exerts half its maximal effect is named the ‘effective concentration 50’ or ‘EC50’ and is listed in Table 5.

[5] = target: T4, h-5-HT6 receptor (Homo sapiens, UniProt P50406); test: Human 5-HT6 receptor radioligand binding assay (HEK293 membranes, [3H]-LSD); settings: HEK293 membranes expressing h-5-HT6 receptor, 1 nM [3H]-LSD; geometrical mean; read-out: Ki (5-HT6 Agonist Site Radioligand Binding)
T4 construct: expressed in transfected cells; host or cells: HEK293 cells (membranes)
Procedure: (v) Human 5-HT6 Receptor Radioligand Binding Assay
Preparation of Membranes by Ultrasonic Treatment and Differential Centrifugation
Cells from stable clonal cell lines expressing the corresponding receptor (5-HT6) were washed with PBS (without Ca^++, Mg^++) and harvested in PBS with 0.02% EDTA. The cells were collected by centrifugation at 500 g for 10 minutes at 4° C., washed with PBS and centrifuged (500 g, 10 minutes at 4° C.). The pellets were stored at −80° C. until use. For membrane preparation, the thawed cell pellet was resuspended in ice-cold sucrose buffer (0.25 M sucrose, 10 mM HEPES (pH 7.4), 1 mM phenylmethylsulfonyl fluoride (PMSF) in DMSO, 5 μg/ml Pepstatin-A, 3 mM EDTA, 0.025% Bacitracin) and homogenized with a Branson Sonifier W-250 (Settings: Timer 4; Output Control 3; Duty Cycle constant; 2 to 3 cycles). Cell disruption was checked with the aid of a microscope. Remaining unbroken cells were pelleted at 1,000 g for 10 minutes at 4° C. The sucrose buffer supernatant was then centrifuged at 60,000 g for 1 hour at 4° C. (Beckman Ultracentrifuge XL 80). The pellet was resuspended in 30 mL of ice-cold Tris buffer (20 mM TRIS (pH 7.4), 5 μg/mL Pepstatin A, 0.1 mM PMSF, 3 mM EDTA) by pipetting through a 10 mL serological pipette and centrifuged for 1 hour at 4° C. at 60,000 g. A final resuspension was performed in a small volume of ice-cold Tris buffer (see above) by pressing through a serological pipette followed by ultrasonic treatment with a Branson Sonifier W-250 (Settings: Timer 1; Output Control 3; Duty Cycle constant; 1 cycle). Protein concentration was determined (BCA-Kit; Pierce) and aliquots stored at −80° C. or in liquid nitrogen for long-term storage.
Receptor Binding Experiments
All receptor binding experiments were carried out in the corresponding assay buffer in a total volume of 200 μL in the presence of various concentrations of test compound (10^−5 M to 10^−9 M, tenfold serial dilution, duplicate determinations). The assays were terminated by filtration on polyethylenimine (PEI 0.1% or 0.3%) presoaked Packard Unifilter Plates (GF/C or GF/B) with a Tomtec MachIII U 96 well-plate harvester. After the plates had been dried for 2 hours at 55° C. in a drying chamber scintillation cocktail (BetaPlate Scint; PerkinElmer) was added. Radioactivity was measured in a Microbeta Trilux two hours after the addition of the scintillation mixture.
5-HT6 Receptor Binding Assay
HEK293 cells stably expressing the h-5-HT6 receptor (NCBI Reference Sequence XM 001435) were cultured in RPMI1640 medium supplemented with 25 mM HEPES, 10% fetal calf serum and 1-2 mM glutamine. The membrane preparation was performed as described above. […] On the day of the assay, the membranes were thawed, diluted in assay buffer (50 mM Tris-HCl, 5 mM CaCl2, 0.1% ascorbic acid, 10 μM pargyline, pH 7.4) to a concentration of 8 μg protein/assay and homogenized by gentle vortexing. […] Non-specific binding was defined with 1 μM methiothepin. The binding reaction was carried out for 3.5 hours at room temperature. During the incubation, the plates were shaken on a plate shaker at 100 rpm and terminated by filtration on Packard Unifilter GF/C (0.1% PEI) plates, followed by 2 wash cycles with ice-cold 50 mM Tris-HCl, 5 mM CaCl2.
Data derived from liquid scintillation counting were analyzed by iterative non-linear regression analysis with the use of the Statistical Analysis System (SAS): a program similar to “LIGAND” as described by Munson and Rodbard (Anal. Biochem. 1980, 107, 220-239). Fitting was performed according to formulae described by Feldman (Anal. Biochem. 1972, 48, 317-338). IC50 and Ki values were expressed as geometrical mean.

T1 sequence (P50406 whole entry): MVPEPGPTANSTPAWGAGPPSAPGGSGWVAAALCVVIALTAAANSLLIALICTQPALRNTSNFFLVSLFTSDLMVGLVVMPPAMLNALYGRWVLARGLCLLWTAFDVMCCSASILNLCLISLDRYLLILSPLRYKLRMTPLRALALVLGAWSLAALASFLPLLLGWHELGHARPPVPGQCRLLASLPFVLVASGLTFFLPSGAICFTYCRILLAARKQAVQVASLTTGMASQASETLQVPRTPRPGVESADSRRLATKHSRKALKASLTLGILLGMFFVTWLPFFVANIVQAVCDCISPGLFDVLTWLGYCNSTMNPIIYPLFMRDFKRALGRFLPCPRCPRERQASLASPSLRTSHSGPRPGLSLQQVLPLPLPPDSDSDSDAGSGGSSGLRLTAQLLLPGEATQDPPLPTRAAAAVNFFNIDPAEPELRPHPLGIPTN
T4 sequence (P50406 whole entry): as above

Row | SMILES | Ki [1] [nM] | EC50 [2] [nM] | Ki [3] [nM] | EC50 [4] [nM] | Ki [5] [nM]
1 | O=S(=O)(c1cccc(Br)c1)N1Cc2ccccc2[C@@H]2CN(Cc3ccccc3)C[C@H]2C1 (relative stereo) [Example 12, Trans-2-benzyl-5-(3-bromophenylsulfonyl)-1,2,3,3a,4,5,6,10b-octahydrobenzo[c]pyrrolo[3,4-e]azepine] | 57 | > 10000 | 320 |  | 
2 | O=S(=O)(c1cccc(C(F)(F)F)c1)N1Cc2ccccc2[C@@H]2CN(Cc3ccccc3)C[C@H]2C1 (relative stereo) [Example 16, Trans-2-benzyl-5-(3-(trifluoromethyl)phenylsulfonyl)-1,2,3,3a,4,5,6,10b-octahydrobenzo[c]pyrrolo[3,4-e]azepine] | 140 | > 10000 | 560 |  | 
3 | O=C1NCc2ccccc2[C@@H]2CN(S(=O)(=O)c3cccc(Cl)c3Cl)C[C@@H]12 (relative stereo) [Example 39, Trans-2-(2,3-dichlorophenylsulfonyl)-1,2,3,3a,5,6-hexahydrobenzo[c]pyrrolo[3,4-e]azepin-4(10bH)-one] | 275 |  |  |  | 207
4 | O=S(=O)(c1ccc(F)c(Cl)c1)N1Cc2ccccc2[C@@H]2CN(Cc3ccccc3)C[C@H]2C1 (relative stereo) [Example 14, Trans-2-benzyl-5-(3-chloro-4-fluorophenylsulfonyl)-1,2,3,3a,4,5,6,10b-octahydrobenzo[c]pyrrolo[3,4-e]azepine] | 250 | > 10000 | 590 |  | 

These reach a lower Ki [1]. Values come first.

Row | Ki [1] [nM] | EC50 [2] [nM] | Ki [3] [nM] | EC50 [4] [nM] | Ki [5] [nM] | SMILES
5 | 43 | > 10000 | 260 |  |  | O=S(=O)(c1cccc(Cl)c1)N1Cc2ccccc2[C@@H]2CN(Cc3ccccc3)C[C@H]2C1 (relative stereo) [Example 20, Trans-2-benzyl-5-(3-chlorophenylsulfonyl)-1,2,3,3a,4,5,6,10b-octahydrobenzo[c]pyrrolo[3,4-e]azepine]
6 | 28 |  | 93 | > 1000 | 40.3 | O=S(=O)(c1cccc(F)c1)N1Cc2ccccc2[C@@H]2CN(Cc3ccccc3)C[C@H]2C1 (relative stereo) [Example 8, Trans-2-benzyl-5-(3-fluorophenylsulfonyl)-1,2,3,3a,4,5,6,10b-octahydrobenzo[c]pyrrolo[3,4-e]azepine]
